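How tested: cells in 96-well plates exposed to compound for 48 hours at five concentrations. At the GI50, growth is halved.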 Active and inactive are the calls of the source. Cut-off read from the data, not from the text of the source: active = GI50 up to about 1.1 µM and inactive = higher.

Some test systems named below: SK-MEL-2; SK-MEL-5; K562; UACC-62; SNB-19; SF-268; NCI-H23; RXF 393; SW-620; SN12C; LOX IMVI; OVCAR-8; SK-MEL-28; EKVX; HCT-15; SK-OV-3; OVCAR-4; U-251; SF-539; HT-29.
Common to all, as to assay: inhibition of tumour cell growth, NCI panel, 48 h

Turning to `CCCC[S+]([O-])CC(CO)NC(=O)/C=C/c1c(C)[nH]c(=O)[nH]c1=O` (stereo not given), the GI50 was 6.34 µM (inactive) with SK-MEL-2; 4.3 µM (inactive) in the experiment with SK-MEL-5; 8.97 µM (inactive) in the experiment on K562; 7.52 µM (inactive) with UACC-62; 4.89 µM (inactive) in the experiment with SNB-19; 2.42 µM (inactive) with SF-268. Also, the GI50 with NCI-H23 was 7.98 µM (inactive); in the experiment on RXF 393, 11 µM (inactive); with SW-620, 16.5 µM (inactive); with SN12C, 5.92 µM (inactive); in the experiment with LOX IMVI, 7.62 µM (inactive); in the experiment on OVCAR-8, 6.73 µM (inactive). In addition, the GI50 with SK-MEL-28 was 6.5 µM (inactive); with EKVX, 8.47 µM (inactive); in the experiment with HCT-15, 31.8 µM; in the experiment on SK-OV-3, 10.7 µM (inactive); in the experiment with OVCAR-4, 0.203 µM (active); in the experiment on U-251, 4.03 µM (inactive). In addition, the results for the GI50 in the experiment on SF-539 and in the experiment on HT-29 were 7.38 µM (inactive) and 14.8 µM (inactive), respectively.

As for `CCOC(=O)C(O)(NC(=O)c1ccccc1F)C(F)(F)F` (stereo not given), the GI50 with SK-MEL-2, in the experiment with SK-MEL-5, with K562, with UACC-62, with SNB-19 and with SF-268 was > 100 µM (inactive) in each case. For the same compound, the GI50 in the experiment on NCI-H23, in the experiment on RXF 393, in the experiment with SW-620, in the experiment on SN12C, in the experiment with LOX IMVI and in the experiment with OVCAR-8 was > 100 µM (inactive) in each case. The GI50 in the experiment on SK-MEL-28 was > 100 µM (inactive); in the experiment with EKVX, > 100 µM (inactive); in the experiment with HCT-15, > 100 µM; in the experiment with SK-OV-3 it was > 100 µM (inactive); in the experiment on OVCAR-4, > 100 µM (inactive); in the experiment with U-251 it was > 100 µM (inactive). For the same compound, the GI50 in the experiment with SF-539 and in the experiment on HT-29 was > 100 µM (inactive) throughout.

Turning to `O=Nn1c2ccccc2c2cc([N+](=O)[O-])ccc21`, the GI50 is 36.3 µM (inactive) in the experiment on SK-MEL-2; 30.5 µM (inactive) with SK-MEL-5; 11.1 µM (inactive) in the experiment on K562; 16 µM (inactive) in the experiment with UACC-62; 20.7 µM (inactive) with SNB-19; 12.7 µM (inactive) in the experiment on SF-268. Further, the GI50 was 17.3 µM (inactive) with NCI-H23; 16.4 µM (inactive) in the experiment on RXF 393; 13.7 µM (inactive) in the experiment with SW-620; 16.8 µM (inactive) with SN12C; 14.7 µM (inactive) with LOX IMVI; 14.6 µM (inactive) in the experiment on OVCAR-8. For the same compound, the GI50 in the experiment with SK-MEL-28 is 18.5 µM (inactive); in the experiment with EKVX it was 11.2 µM (inactive); in the experiment on HCT-15, 22.3 µM; in the experiment on SK-OV-3, 16.1 µM (inactive); with OVCAR-4 it was 16.8 µM (inactive); in the experiment with U-251, 16.4 µM (inactive). Moreover, the GI50 in the experiment with SF-539 is 20.3 µM (inactive); with HT-29 it was 18 µM (inactive).

As for `COc1cc(/N=N\c2cccc(S(=O)(=O)O)c2)ccc1/N=N\c1ccc(/C=C/c2ccc(-n3on3-c3ccc(/C=C/c4ccc(/N=N/c5ccc(/N=N\c6cccc(S(=O)(=O)O)c6)cc5OC)cc4S(=O)(=O)O)c(S(=O)(=O)O)c3)cc2S(=O)(=O)O)c(S(=O)(=O)O)c1`, the GI50 in the experiment with SK-MEL-2, with SK-MEL-5, with K562, in the experiment with UACC-62, with SNB-19 and in the experiment on SF-268 was > 100 µM (inactive) in each case. The GI50 with NCI-H23, in the experiment on RXF 393, with SW-620, with SN12C, with LOX IMVI and in the experiment with OVCAR-8 was > 100 µM (inactive) each time. Further, the GI50 is > 100 µM (inactive) in the experiment with SK-MEL-28; > 100 µM (inactive) in the experiment on EKVX; > 100 µM in the experiment with HCT-15; > 100 µM (inactive) in the experiment with SK-OV-3; > 100 µM (inactive) with OVCAR-4; > 100 µM (inactive) in the experiment with U-251. For the same compound, the GI50 in the experiment on SF-539 and in the experiment on HT-29 was > 100 µM (inactive) throughout.

These data come from ChEMBL document CHEMBL1201862, “PubChem BioAssay data set” (2004).
